From patent US20220175820A1 (PIERRE FABRE DERMO-COSMETIQUE, priority 2019, published 2022)
Marks after values point to notes of the source that are not given here.

How the values were obtained:
[1] = system: transcription factor NFκB; test: NFκB activation stimulated by TNFα in HaCat keratinocytes with luciferase reporter gene; assay type: cell-based, human; details: dexamethasone 2 μM, TNFα 0.3 ng/ml
Procedure: The cell line used in this study is the HaCat line (human keratinocytes) stably transfected with the luciferase reporter gene.
These cells are cultured on 24-well plates under the same conditions as in Example 1. They are then preincubated for 60 minutes with the products to be tested, added to the culture medium in the form of a solution in water. A stimulant, TNFα (0.3 ng/ml, diluted in culture medium) is added to the cultures which are then incubated for 5 hours at 37° C. […] A positive control is used in this test, dexamethasone (synthetic glucocorticoid hormone, with an antiinflammatory and immunosuppressant effect, added to the culture medium in the form of a solution in water) tested at 2 μM in the culture medium. Note that 3 independent experiments were conducted. The Bright-Glo™ agent (which induces cell lysis and thus enables luciferase release) and its substrate (luciferin) are added before reading the luminescence. The raw data are analyzed by Excel. The intergroup comparison is performed by one-way ANOVA followed by Dunnett's post-hoc test.

TSLP = TSLP production by stimulated normal human epidermal keratinocytes (atopic dermatitis model, ELISA); assay type: cell-based; details: bafilomycin 30 nM; stimulation by Poly I:C, PamC3, IL-4 and IL-13
Procedure: (§1) The study is performed on normal human epidermal keratinocytes cultured under standard conditions (37° C., 5% CO2). The culture medium is standard (keratinocyte-SFM supplemented with 0.25 ng/ml epidermal growth factor (EGF), 25 μg/ml pituitary extract and 25 μg/ml gentamycin). The test medium is the same without growth factor.
(§2) To simulate an atopic dermatitis environment, keratinocytes are preincubated for 1 hour in the medium with or without (control) the compounds to be tested, the vehicle (water) or the positive control, bafilomycin (macrolide family) at 30 nM. […] After this preincubation, keratinocytes are stimulated for 24 hours by a mixture of TLR ligands (Poly I:C and PamC3) and inflammatory cytokines (IL-4 and IL-13) added to the cells. An unstimulated control condition is also done at the same time. The cells are incubated for 24 hours.
(§3) The culture supernatants are collected, centrifuged and frozen at −80° C. TSLP and IL-8 are quantified by ELISA.
(§4) Three independent experiments are conducted. Statistical analysis is determined by one-way ANOVA followed by Dunnett's post-hoc test.

IL-8 = IL-8 production by stimulated normal human epidermal keratinocytes (atopic dermatitis model, ELISA); assay type: cell-based; details: bafilomycin 30 nM; stimulation by Poly I:C, PamC3, IL-4 and IL-13
Procedure: as §1, §2, §3, §4

TGM1: transglutaminase 1 = test: RT-qPCR gene expression in normal human keratinocytes: TGM1; assay type: cell-based; details: calcium chloride 1.5 mM, 48 h
Procedure: (§5) The effects of this compound were assessed via the RT-qPCR technique with the analysis of 12 target genes chosen for their importance in keratinocyte differentiation, antimicrobial defence and hydration. Calcium chloride (tested at 1.5 mM) is used as the reference compound (physiological agent inducing terminal epidermal differentiation). The cells are then collected for analysis of target expression (mRNA) by real-time PCR. Total RNAs were extracted with TriPure Isolation Reagent® according to the supplier's instructions (Roche Life Science, Meylan, France). They were assayed with the Bioanalyser 2100 (Agilent Technologies, Les Ulis, France). The mRNAs were reverse transcribed into complementary DNA with oligo(dT) and Transcriptor Reverse Transcriptase. PCR was performed in the LightCycler® System according to the supplier's instructions (Roche). The PCR mix used is SYBR green I. The results were analyzed with Microsoft Excel®. The relative quantity is calculated for each gene by normalizing with two reference genes, ribosomal protein L13A (RPL13A) and TATA box binding protein (TBP).

FLG: filaggrin = test: RT-qPCR gene expression in normal human keratinocytes: FLG; assay type: cell-based; details: calcium chloride 1.5 mM, 48 h
Procedure: as §5

DEFB4A: β-defensin 2 = test: RT-qPCR gene expression in normal human keratinocytes: DEFB4A; assay type: cell-based; details: calcium chloride 1.5 mM, 48 h
Procedure: as §5

KLK7: type 7 kallikrein = test: RT-qPCR gene expression in normal human keratinocytes: KLK7; assay type: cell-based; details: calcium chloride 1.5 mM, 48 h
Procedure: as §5

CASP14: caspase 14 = test: RT-qPCR gene expression in normal human keratinocytes: CASP14; assay type: cell-based; details: calcium chloride 1.5 mM, 48 h
Procedure: as §5

[2] = system: SULT2B1: cholesterol sulfotransferase; test: RT-qPCR gene expression in normal human keratinocytes: SULT2B1; assay type: cell-based; details: calcium chloride 1.5 mM, 48 h
Procedure: as §5

CDSN : corneodesmosin = test: RT-qPCR gene expression in normal human keratinocytes: CDSN; assay type: cell-based; details: calcium chloride 1.5 mM, 48 h
Procedure: as §5

[3] = system: FABP5: epidermal fatty acid binding protein; test: RT-qPCR gene expression in normal human keratinocytes: FABP5; assay type: cell-based; details: calcium chloride 1.5 mM, 48 h
Procedure: as §5

[4] = system: DEGS2: sphingolipid C4-hydroxylase/delta-4 desaturase; test: RT-qPCR gene expression in normal human keratinocytes: DEGS2; assay type: cell-based; details: calcium chloride 1.5 mM, 48 h
Procedure: as §5

CLDN4: claudin 4 = test: RT-qPCR gene expression in normal human keratinocytes: CLDN4; assay type: cell-based; details: calcium chloride 1.5 mM, 48 h
Procedure: as §5

C[C@@H]1C[C@H]2[C@@H]3CCC4=CC(=O)C=C[C@]4(C)[C@@]3(F)[C@@H](O)C[C@]2(C)[C@@]1(O)C(=O)CO [Dexa, dexamethasone, reference compound]
inhibition at 2 µM ([1]; Homo sapiens, HaCaT, 5 h, read-out: NFκB activation % Inh): > 40% | NFκB activation % Inh ([1]; 5 hours): 41% | NFκB activation RLU Mean ([1]; 5 hours): 14206 RLU

CO/C1=C\C(C)=C\[C@@H](C)[C@@H](O)[C@@H](C)C/C(C)=C/C=C/[C@H](OC)[C@@H]([C@@H](C)[C@@H](O)[C@H](C)[C@@]2(O)C[C@@H](O)[C@H](C)[C@@H](C(C)C)O2)OC1=O [Bafilomycin, bafilomycin, reference compound]
TSLP production at 24 h % Inh (TSLP): 70* % | TSLP production at 24 h Mean (TSLP): 81 pg/mL | Production of IL-8 at 24 h Mean (IL-8): 26022 pg/mL

[Ca+2].[Cl-].[Cl-] [Calcium chloride]
TGM1 Mean RQ (relative quantity) (TGM1: transglutaminase 1): 9.0 | FLG Mean RQ (relative quantity) (FLG: filaggrin): 4.5 | DEFB4A Mean RQ (relative quantity) (DEFB4A: β-defensin 2): 118.0 | KLK7 Mean RQ (relative quantity) (KLK7: type 7 kallikrein): 11.3 | CASP14 Mean RQ (relative quantity) (CASP14: caspase 14): 1.6 | SULT2B1 Mean RQ (relative quantity) [2]: 14.0 | CDSN Mean RQ (relative quantity) (CDSN : corneodesmosin): 1.8 | FABP5 Mean RQ (relative quantity) [3]: 6.9 | DEGS2 Mean RQ (relative quantity) [4]: 3.0 | CLDN4 Mean RQ (relative quantity) (CLDN4: claudin 4): 2.5
